Results as given in patent US11865176B2, “Compositions and methods of modulating anti-tumor immunity” (Dana-Farber Cancer Institute, Inc., priority 2016, dated 2024).

What was measured:
[1] = test system: tumor infiltrating immune cells; experiment: FACS analysis of lung tumor immune infiltrates, KP GEMM; type: in vivo, mouse
From the text: All animal studies were reviewed and approved by the Institutional Animal Care and Use Committee (IACUC) at the Dana-Farber Cancer Institute. The genetically engineered mouse model (GEMM) harboring a conditional activating mutation of endogenous Kras (Kras^LSL-G12D/+) crossed with p53 conditional knockout Trp53^fl/fl has been previously described (36). CRE recombinase was induced through intranasal inhalation of […] adeno-Cre (University of Iowa adenoviral core).
For drug treatment studies in GEMM models, mice were evaluated by MRI imaging to quantify lung tumor burden before and after drug treatment. Mice were treated with either vehicle, or 100 mg/kg trilaciclib or 100 mg/kg palbociclib daily by oral gavage.
Mice were sacrificed, and lungs were perfused using sterile PBS through heart perfusion from the left ventricle after BAL fluid collection. The whole lung was minced into small pieces and digested in collagenase D (Sigma) and Dnase I (Sigma) in Hank's Balanced Salt Solution (HBSS) at 37° C. for 30 min. […] Live cells were determined by LIVE/DEAD® fixable aqua dead cell stain kit (Molecular Probes). The cell pellets were re-suspended in PBS with 2% FBS for Fluorescence-activated cell sorting (FACS) analysis. […] Cells were imaged on BD LSRFortessa (BD Biosciences) and analyzed using FlowJo software (Tree Star).

[2] = test system: tumor-infiltrating CD3+ T cells; experiment: Single-cell RNA-seq of tumor-infiltrating CD3+ T cells from KP GEMM lung tumors; type: in vivo, mouse
From the text: Library preparation and pre-processing: Single-cell suspensions from KrasG^12D/+Trp53^fl/fl GEMM mice treated with trilaciclib were isolated as described for tumor-infiltrating immune cells, with modifications. After isolation, live cells were stained and sorted for the CD45+CD3+DAPI-population and plated at one cell/well of a skirted twin.tec 96-well plate (Eppendorf) containslxTCL buffer (Qiagen cat #1031576) spiked with ERCC (Ambion, 1:2,000,000 dilution ratio). A total of four 96-well plates were generated, two plates with and two plates without ERCC spike-ins. After sorting, full-length RNA-seq from isolated single cells was performed according to SMART-seq2 protocol with modifications. Briefly, total RNA was purified using RNA-SPRI beads. Poly(A)+ mRNA was converted to cDNA for amplification. The converted cDNA transcript was subject to barcoding specific to each sample using transposon-based fragmentation that used dual-indexing. For single-cell sequencing, each cell was given its own combination of barcodes. Barcoded cDNA fragments were then pooled prior to sequencing. Sequencing was carried out as paired-end (PE) 2×36 bp with an additional 8 cycles for each index on NexSeq 500 desktop sequencer (Illumina). To obtain quantitative mapping information, PE reads were mapped to the mouse genome (mm9), concatenated with ERCC sequences for spiked-in samples, by STAR (56). Estimated transcript counts and transcripts per million (TPM) for the mouse Gencode vM1 annotation, concatenated with ERCC sequence information for spiked-in samples, were obtained using the pseudo-aligner Kallisto (57). Aggregated and library scaled TPM values for genes were obtained according to the methods described (58) and were used in further downstream differential distribution, Gene Ontology and cell cycle analysis. […] Genes were considered not expressed if TPM<1 and were subsequently removed if not detected in at least 10% of remaining cells. The single-cell RNA-seq results have been deposited in NCBI's Gene Expression Omnibus and are accessible through GEO Series accession number GSE89477 (https://www.ncbi.nlm.nih.gov/geo/query/acc.cgi?acc=GSE89477).
We used a multi-step approach using the R package SCONE to identify the optimal normalization strategy and account for possible batch effects, observed and hidden technical covariates (59). […] Next, these genes were used in the SCONE framework as negative control genes for unwanted variation for all plates. We continued with highest scored normalization strategy according to SCONE metrics, which included adjusting for batch and biological effects, removal of observed technical variation based on previously identified quality metrics, scaling for library size with DESeq, and imputing drop-out events using a combined clustering and probabilistic scoring algorithm.
To assign cells to a cell-cycle stage we applied the cyclone classification tool as previously described (60).
Subsequently, we combined two approaches. […] Next, these genes were used to perform PCA and the 100 most correlated and anti-correlated genes for the first 5 principal components were retained for reducing dimensionality and separating cells in gene expression space with t-SNE. Distinct groups were identified applying density based clustering (dbscan) on the t-SNE generated coordinates, resulting in three (3) groups of cells.
Genes that display differential distribution between previously identified groups or between treatments were discovered by performing pairwise comparisons with the scDD (http://biorxiv.org/content/early/2015/12/29/035501) package in R. Enriched biological processes were identified using the online GOrilla tool (http://bmcbioinformatics.biomedcentral.com/articles/10.1186/1471-2105-10-48).

CN1CCN(c2ccc(Nc3ncc4cc5n(c4n3)C3(CCCCC3)CNC5=O)nc2)CC1 [trilaciclib]
infiltration of CD4+ T cells and, to a lesser degree, CD8+ cells into lung tumors ([1]; KP mice, 100 mg/kg daily for 7 days): increased infiltration
levels of PD-1 and CTLA-4 in CD4+ and CD8+ T cells ([1]; after treatment, to different extents): reduced
log2(G1T28 vs vehicle) ([2]; gene Aifl): Aifl^65 1.045
log2(G1T28 vs vehicle) ([2]; gene Ccl2): Ccl2^63, 690.6
log2(G1T28 vs vehicle) ([2]; gene Ccl5): Ccl5^63 0.7416
log2(G1T28 vs vehicle) ([2]; gene Ccna2): Ccna2^71 −1.194
log2(G1T28 vs vehicle) ([2]; gene Ccnd1): Ccnd1^67 0.8223
log2(G1T28 vs vehicle) ([2]; gene Ccr2): Ccr2^61 3.091
log2(G1T28 vs vehicle) ([2]; gene Cd22): Cd22^72 −1.232
log2(G1T28 vs vehicle) ([2]; gene Cd86): Cd86^70 0.621
log2(G1T28 vs vehicle) ([2]; gene Clcf1): Clcf1^63 1.47
log2(G1T28 vs vehicle) ([2]; gene Csfl): Csfl^63 0.5966
log2(G1T28 vs vehicle) ([2]; gene Cx3cr1): Cx3cr1^22 1.233
log2(G1T28 vs vehicle) ([2]; gene Cxcl1): Cxcl1^68 0.7175
log2(G1T28 vs vehicle) ([2]; gene Ece1): Ece1^62 2.974
log2(G1T28 vs vehicle) ([2]; gene Il2ra): Il2ra^66 0.9413
log2(G1T28 vs vehicle) ([2]; gene Il7r): Il7r^64 1.461
log2(G1T28 vs vehicle) ([2]; gene Tnfsf8): Tnfsf8^63 1.037
IL-2 signaling activation ([2]; group 3, and group 1 to a lesser extent): significantly increased IL-2 signaling activation
proportion of T cells in the G1 phase ([2]; groups 1 and 3): increased the proportion of T cells in the G1 phase
